{"source": "patent US10533185B2", "about": "“Method for producing polyploidized megakaryocyte and platelets” (The University of Tokyo, priority 2011, dated 2020)", "format_in_all_cases": "cell-based, human", "key": {"iMKPC-type I cells": {"tested_on": "iMKPC-type I cells", "experiment": "Cytokine dependence of iMKPC-type I proliferation", "settings": "SCF 50 ng/ml, TPO 50 ng/ml, 37° C., 14 days, 10T1/2 feeder cells", "description": "The cytokine dependence of iMKPC-type I was studied by seeding 2×10^5 iMKPC-type I cells on 10T1/2 feeder cells and culturing them for 14 days at 37° C. under the conditions shown in FIG. 1A in the presence of 2 uM of β-estradiol while using the following cytokines: SCF (50 ng/ml), TPO (50 ng/ml), and EPO (6 U/ml). A population in which proliferation was confirmed on Day 4 and Day 11 was counted for cell number, and 2×10^5 cells were replated, while the medium of the other populations was changed. The number of cells was counted on Day 8 and Day 14 and 2×10^5 cells were replated. At the same time, on Day 8, some of the cells were analyzed with a flow cytometer after staining with a CD41 antibody, a CD42b antibody, and a GPA antibody."}, "iMKPC-type II cells [1]": {"tested_on": "iMKPC-type II cells", "experiment": "Cytokine dependence and surface markers of iMKPC-type II", "settings": "for proliferation of iMKPC-type II cells: SCF 50 ng/ml, TPO 50 ng/ml, 39° C., 21 days, Dox 0.5 μg/ml", "description": "On 10T1/2 feeder cells, 2×10^5 iMKPC-type II cells were seeded, followed by culturing in the presence of 0.5 μg/ml of Dox at 39° C. for 21 days under the conditions of cytokines, that is, SCF (50 ng/ml), TPO (50 ng/ml), and EPO (6 U/ml).\nOn Day 21 after addition of cytokine, the cells were analyzed with a flow cytometer after staining with a CD41 antibody, a CD42b body, and a GPA antibody."}, "[2]": {"tested_on": "megakaryocytes before polyploidization derived from ES cells", "experiment": "Ploidy assay: FACS after Hoechst and anti-CD41a staining", "settings": "for number of cells with 8N or greater: 10 μg/ml", "description": "After introduction of MYC and MBI1 genes, the resulting megakaryocytes (about 10^5) were cultured for about 30 days in the absence of doxycycline and presence of estradiol under the culturing conditions of 37° C. and presence of 5% CO2 to proliferate them to about 10^11. Culturing was continued further while changing the condition to the presence of doxycycline and absence of estradiol in order to suppress the expression of the MYC gene and the BMI1 gene in the thus proliferated megakaryocytic cell line and adding an ROCK inhibitor (Y27632; product of Wako Pure Chemicals) to the culture medium to give a concentration of 10 μM in order to determine the influence of Y27632 on polyploidization. On Day 7 after culturing was started while adding Y27632 to the culture medium, the degree of polyploidization was studied using FACS (FIG. 5).\nThe degree of polyploidization was studied (ploidy assay) by suppressing expression of MYC/BMI1 in the presence of 10 μM of Y27632 while inducing […] of BCL-XL, and culturing the resulting cells for 7 days.\nInfluence on polyploidization was studied by further treating the cells, which was subjected to the treatment of 2-7-4, with valproic acid. After suppression of expression of MYC/BMI1, forced expression of BCL-XL, treatment with the ROCK inhibitor (10 μM), and suppression of expression of p53, valproic acid (final concentration: 0.5 mM) was added to the medium and culturing was conducted at 39° C. for 7 days.\nAfter suppression of expression of MYC/BMI1, forced expression of BCL-XL, and treatment with blebbistatin (10 μg/ml), the resulting cells were cultured at 39° C. for 7 days.\n(§1) Next, the degree of polyploidization when the blebbistatin treatment was used in combination with the other treatments was studied. The cells were subjected to blebbistatin treatment in addition to the above-mentioned treatments in Section 2-7-5 and influence of them on polyploidization was studied. After suppression of expression of MYC/BMI1, forced expression of BCL-XL, treatment with a ROCK inhibitor (10 μM), suppression of expression of p53, and treatment with valproic acid (0.5 mM), treatment with blebbistatin (10 μg/ml) was conducted and then, the resulting cells were cultured at 39° C. for 7 days. […] Induction to mature megakaryocytes was therefore confirmed (lower graph in FIG. 13)."}, "iMKPC-type II cells [3]": {"tested_on": "iMKPC-type II cells", "experiment": "Microscopic observation of polyploidization of iMKPC-type II", "settings": "5 μg/ml; c-MYC and BMI1 off, BCL-XL forced, p53 knocked down", "from_the_text": "It was observed that by turning off the expression of c-MYC and BMI1, forcing expression of BCL-XL, and knocking down the p53 gene, the cells become increasingly polyploidized."}, "megakaryocytes (CD41a+)": {"tested_on": "megakaryocytes (CD41a+)", "experiment": "Growth curve and micrographs of cells treated with blebbistatin plus the other treatments", "settings": "10 μg/ml with the other treatments, after culturing for 7 days", "description": "as §1"}, "iMKPC-type II cells [4]": {"tested_on": "iMKPC-type II cells", "experiment": "Platelet production from iMKPC-type II cells: flow cytometry for CD41/CD42b", "settings": "5 μM, 37° C., 3 days, with/without feeder cells and serum", "description": "A platelet production efficiency was measured by using the following conditions in combination as shown in FIG. 17: use/non-use of feeder cells, use/non-use of Conditioned Medium, use of serum medium/use of serum-free medium, and administration/non-administration of blebbistatin.\nConditioned Medium was prepared by seeding 8×10^5 MMC-treated 10T1/2 cells on a 10-cm dish subjected to gelatin coating, changing the medium with 10 ml of a differentiation medium (EBM) containing SCF (50 ng/ml) and TPO (50 ng/ml) and further containing 15% serum or not containing a serum on the next day (after adhesion of cells), recovering the medium and adding 10 ml of a new medium (containing SCF and TPO) 24 hours later, pooling three-day's Conditioned Medium, and filtering the medium through a 0.22-μm filter to remove the 10T1/2 cells. When the resulting medium was used for tests, SCF and TPO were added newly. […]\nThe platelets contained in the supernatant of the medium were analyzed with a flow cytometer after staining with an antibody CD41 and an antibody CD42b. […]\nComparison in the expression level of CD42b in CD41-positive platelets in each population (a ratio of average fluorescence intensity of each population to average fluorescence intensity of normal condition) is shown in FIG. 18. […]"}}}
{"compound": "SCF: cytokine added to the culture medium (50 ng/ml)", "values": [{"measurement": "proliferation of iMKPC-type I cells", "setting": "iMKPC-type I cells", "value": "strongly depended on SCF"}, {"measurement": "proliferation of iMKPC-type II cells", "setting": "iMKPC-type II cells [1]", "value": "SCF had no influence on proliferation"}]}
{"compound": "Cc1ccc2c(c1)C(=O)C1(O)CCN(c3ccccc3)C1=N2", "note": "(centres unmarked) [blebbistatin]", "values": [{"measurement": "number of cells with 8N or greater", "setting": "[2]; 39° C., 7 days, MYC/BMI1 suppressed, BCL-XL forced, ROCK inhibitor 10 μM, p53 suppressed, valproic acid 0.5 mM, vs control cells", "value": "greater"}, {"measurement": "number of cells with 8N or greater", "setting": "[2]; 39° C., 7 days, MYC/BMI1 suppressed, BCL-XL forced, vs cells without blebbistatin", "value": "greater"}, {"measurement": "polyploidization by microscopic observation", "setting": "iMKPC-type II cells [3]", "value": "polyploidized further"}, {"measurement": "cell morphology (cytoplasm)", "setting": "megakaryocytes (CD41a+)", "value": "hypertrophy of cytoplasm was observed"}, {"measurement": "proliferation capacity", "setting": "megakaryocytes (CD41a+)", "value": "slight deterioration in proliferation capacity"}, {"measurement": "expression level of CD42b in CD41-positive platelets (ratio of average fluorescence intensity to normal condition)", "setting": "iMKPC-type II cells [4]", "value": "Influence of blebbistatin was not found"}, {"measurement": "platelet production amount (ratio of number of CD41+ CD42b+ platelets to normal condition)", "setting": "iMKPC-type II cells [4]", "value": "No significant difference"}]}
{"compound": "TPO: cytokine added to the culture medium (50 ng/ml)", "values": [{"measurement": "proliferation of iMKPC-type I cells", "setting": "iMKPC-type I cells", "value": "TPO had no influence on their proliferation"}, {"measurement": "expression of CD41a and CD42b", "setting": "iMKPC-type II cells [1]; Day 21 after addition of cytokine, compared with the other populations", "value": "higher expression in CD41a and CD42b"}, {"measurement": "proliferation of iMKPC-type II cells", "setting": "iMKPC-type II cells [1]", "value": "proliferation is promoted further"}]}
{"compound": "CCCC(CCC)C(=O)O", "note": "[valproic acid]", "values": [{"measurement": "degree of polyploidization", "setting": "[2]; 0.5 mM, 39° C., 7 days, MYC/BMI1 suppressed, BCL-XL forced, ROCK inhibitor 10 μM, p53 suppressed, vs untreated control cells", "value": "promoted polyploidization"}]}
{"compound": "C[C@@H](N)[C@H]1CC[C@H](C(=O)Nc2ccncc2)CC1.Cl.Cl.O", "note": "(relative stereo) [Y27632, (R)-(+)-trans-N-(4-pyridyl)-4-(1-aminoethyl)-cyclohexane carboxamide.2HCl.H2O]", "values": [{"measurement": "number of cells with 4N (degree of polyploidization)", "setting": "[2]; 10 μM, Day 7, MYC/BMI1 expression suppressed, compared with cells without inhibitor (vehicle)", "value": "increase in the number of cells with 4N"}]}
